The subject of the assay is mesenchymal cells (ABME) with MNC. Put plainly: quantitative hematopoietic colony formation assay for ABME (HCFA-ABME): MNC with hematomodulator-contacted mesenchymal cells. Type of assay: cell-based, human. From the text:
As described above, the medium for blood cell formation employed may be IMDM with 20% serum and supplemented with interleukins such as IL-lbeta, IL-3, and IL-6, stem cell factor, lineage specific growth factors such as erythropoietin and GM-CSF, G-CSF; and methyl cellulose to the extent of 0.8%, the culture is maintained for 12-14 days under the culture conditions whereby blood cell colonies grow well or form colonies and clearly the growth is visible/distinguishable for further analysis and use. An assay designed in a similar manner to assess quantitative nature of ABME function is referred hereafter as ‘quantitative hematopoietic colony formation assay for ABME (HCFA-ABME)’.
Several experiments were conducted to determine that mesenchymal cells exert direct influence on SPC cell-fate. In one set of experiments, mesenchymal cells were cultured separately and nearly 50,000 of them were exposed to a typical HCFA medium comprising 0.8% methyl cellulose in IMDM and 20-30% serum along with excess amounts of various purified and human specific cytokines and hematopoietic colony stimulating growth factors (from Stem cell Technologies, […], Canada). More specifically, the quantities of hematopoietic growth factors used routinely in HCFA were, 2 International Units per milliliter (2 I.U.ml^−1) of Erythropietin (EPO), 50 nanogram per milliliter (50 ng.ml^−1) of Stem Cell Factor (SCF) and 20 nanogram per milliliter (20 ng/ml^−1) each of Granulocyte-Macrophage-Colony Stimulating Factor (GM-CSF), Granulocyte-Colony Stimulating Factor (G-CSF), Interleukin-1 beta (IL-1β), Interleukin-3 (IL-3) and Interleukin-6 (IL-6) {all growth factors and cytokines are from Stem cell Technologies, Vancouver, Canada,}.
In another set of experiments, 50,000 of the same mesenchymal cells were first mixed with nearly 100,000 MNC, held at 37° C. for at least 30 minutes and were processed for colony formation assays. In several experiments, a consistent improvement in the number and cellularity of the hematopoietic colonies was seen when both these two cell types were mixed compared to a reference where only the cells of MNC were used. The increase was ranging from 1.5 to 10-fold. Thus, the enhancement in colony formation obtained with the use of only mesenchymal cells was highly variable and unpredictable among samples. The fact that hematopoietic colonies formed in increased numbers and cellularity only when MNC and mesenchymal cells were processed together is evidence of a new environment created by the mesenchymal cells in which the SPC present in the MNC were more productive. This increase results in activation of the pre-existing but quiescent SPC, formation of new SPC due to self-renewal, and a combination of both factors.
In order to create ABME, the mesenchymal cells were covered with the contacting medium comprising hematomodulators contained in IMDM with 20% human serum or fetal bovine serum for a desirable period (range 8-24 hours) and removed. The contacted cells were then washed 2 times using the contacting medium (IMDM +20% FCS) without hematomodulators and used as such or after harvesting the mesenchymal cells, which now represent the composition of in vitro ABME. Optionally, ABME cells can be configured on supports that will distribute them in two or more dimensions for better results. A requisite number of MNC/SPC and cells of the ABME are taken and kept together for a suitable duration (range 0.5 to 6 hours) after which they were processed for in vitro hematopoietic colony formation assays or hematopoiesis.
Thus, the inventors undertook 4 sets of experiments: (a) wherein mononuclear cells were exposed to mesenchymal cells without any treatment; (b) wherein MNC were exposed to mesenchymal cells contacted with a biological agent [TGFβ1] […]

With “HumanTransforming Growth Factor beta1 [TGFβ1]”, the “efficiency of ABME created” value (1-25 nano gram.ml^-1, mesenchymal cells contacted 8-24 hours) is “equally efficient ABME”. Where the note is “MNC exposed to mesenchymal cells contacted with the agent, compared with (A) untreated mesenchymal cells, FIG. 1”, the “blood cell colonies formed (number, cellularity)” value is “greater in number and of higher cellularity than (A)”. In addition, for the setting “lineage specific colony formation assay, FIG. 3A, vs control without biological agent”, the “colony formation along lineages GEMM, BFU-E and GM” value is “uniformly stimulated”. Where the note is “used separately”, the “potency in creating ABME from mesenchymal cells” value is given as “nearly equipotent”.

The values are drawn from US20080241870A1, “Composition For Creating an Artificial Bone Marrow Like Environment and Use Thereof” (NATIONAL CENTRE FOR CELL SCINECES, priority 2005, published 2008).
